Data published in BigSolDB 2.1.

Cc1occc(=O)c1O
solubility (mole fraction)
Details | 288.15 K | 293.15 K | 298.15 K | 303.15 K | 308.15 K | 313.15 K | 318.15 K | 323.15 K
in 1,2-dichloroethane | 0.0109 | 0.0143 | 0.0174 | 0.0214 | 0.0262 | 0.0333 | 0.0378 | 0.048
in acetone | 0.0101 | 0.0116 | 0.0134 | 0.0157 | 0.0195 | 0.023 | 0.0265 | 0.0311
in acetonitrile | 0.00735 | 0.00861 | 0.0107 | 0.0136 | 0.016 | 0.0209 | 0.0258 | 0.0325
in ethanol | 0.00894 | 0.0106 | 0.0125 | 0.0156 | 0.0211 | 0.0273 | 0.0331 | 0.0427
in ethyl acetate | 0.0115 | 0.013 | 0.0153 | 0.02 | 0.0225 | 0.0276 | 0.0337 | 0.0413
in isobutanol | 0.00638 | 0.00832 | 0.0108 | 0.0134 | 0.0185 | 0.0238 | 0.0293 | 0.0349
in isopropanol | 0.00683 | 0.00812 | 0.0103 | 0.0129 | 0.0161 | 0.021 | 0.0265 | 0.0328
in methanol | 0.0135 | 0.0159 | 0.0185 | 0.0223 | 0.0267 | 0.0325 | 0.0373 | 0.0465
in n-butanol | 0.00705 | 0.00917 | 0.0115 | 0.0143 | 0.0182 | 0.0228 | 0.03 | 0.0365
in n-butyl acetate | 0.00889 | 0.0101 | 0.0128 | 0.0148 | 0.0193 | 0.0229 | 0.0281 | 0.0317
in n-propanol | 0.00705 | 0.00931 | 0.0118 | 0.0144 | 0.0182 | 0.0233 | 0.028 | 0.0341
in n-propyl acetate | 0.00974 | 0.0105 | 0.013 | 0.0151 | 0.0181 | 0.0226 | 0.026 | 0.0316
in sec-butanol | 0.00716 | 0.00927 | 0.0111 | 0.0153 | 0.0177 | 0.0244 | 0.0304 | 0.0408
